Assay results reported in EPA's CvTdb concentration-time database.

Experiments:
rat [1] = test: concentration in blood after dosing
rat [2] = test: concentration in skin after dosing; conditions: dosed: benzo(a)pyrene, 40 umol/kg, iv, male, Sprague Dawley
rat [3] = test: concentration in lung after dosing; conditions: dosed: benzo(a)pyrene, 40 umol/kg, iv, male, Sprague Dawley
rat [4] = test: concentration in feces after dosing; conditions: dosed: benzo(a)pyrene, 40 umol/kg, iv, male, Sprague Dawley
rat [5] = test: concentration in liver after dosing; conditions: dosed: benzo(a)pyrene, 40 umol/kg, iv, male, Sprague Dawley
rat [6] = test: concentration in kidney after dosing; conditions: dosed: benzo(a)pyrene, 40 umol/kg, iv, male, Sprague Dawley
rat [7] = test: concentration in adipose after dosing; conditions: dosed: benzo(a)pyrene, 40 umol/kg, iv, male, Sprague Dawley
rat [8] = test: concentration in blood after dosing (% dose/mL); conditions: dosed: benzo(a)pyrene, 117 nmol, iv, male, Sprague Dawley

BrCBr [dibromomethane]
rat [1], dosed: dibromomethane, dermal, duration: 4 hr, male, Fischer-344
Conditions	concentration in blood [ng/mL]
0.4941 h, 500 ppm	965
0.5004 h, 5000 ppm	8990
0.5042 h, 10000 ppm	34200
0.5051 h, 1000 ppm	1170
0.9982 h, 500 ppm	1280
0.9999 h, 5000 ppm	14700
1.004 h, 10000 ppm	55200
1.005 h, 1000 ppm	2090
2.005 h, 500 ppm	1290
2.007 h, 1000 ppm	2720
2.011 h, 10000 ppm	90100
2.014 h, 5000 ppm	30000
2.998 h, 1000 ppm	3020
2.998 h, 10000 ppm	120000
3 h, 500 ppm	1150
3.005 h, 5000 ppm	38200
4.005 h, 1000 ppm	3130
4.005 h, 10000 ppm	142000
4.007 h, 500 ppm	1280
4.017 h, 5000 ppm	44900

CCCCCCCCCC [decane]
rat [1], dosed: decane, 1200 ppm, inhalation, duration: 4 hr
Conditions	concentration in blood [µg/g]
0.51 h	0.855
0.5118 h	1.32
0.5126 h	1.61
0.5141 h	0.232
1.018 h	0.402
1.021 h	0.836
1.022 h	1.06
1.023 h	1.4
2.003 h	0.669
2.007 h	0.196
2.01 h	0.37
2.011 h	0.451
3.997 h	0.455
4.002 h	0.176
4.003 h	0.21
5.5 min	4.98
335 s	6.97
338 s	8.67

c1ccc2c(c1)cc1ccc3cccc4ccc2c1c34 [benzo(a)pyrene]
Conditions	concentration in adipose [µmol/kg]	concentration in blood	concentration in feces [µmol/kg]	concentration in kidney [µmol/kg]	concentration in liver [µmol/kg]	concentration in lung [µmol/kg]	concentration in skin [µmol/kg]
rat [2], 2 h	–	–	–	–	–	–	7.56
rat [2], 4 h	–	–	–	–	–	–	2.74
rat [2], 8 h	–	–	–	–	–	–	1.7
rat [2], 16 h	–	–	–	–	–	–	0.783
rat [2], 24 h	–	–	–	–	–	–	0.102
rat [2], 33 h	–	–	–	–	–	–	0.0296
rat [2], 48 h	–	–	–	–	–	–	0.0205
rat [2], 72 h	–	–	–	–	–	–	0.018
rat [3], 2 h	–	–	–	–	–	17	–
rat [3], 4 h	–	–	–	–	–	10.2	–
rat [3], 8 h	–	–	–	–	–	17.6	–
rat [3], 16 h	–	–	–	–	–	16.9	–
rat [3], 24 h	–	–	–	–	–	8.02	–
rat [3], 33 h	–	–	–	–	–	11.2	–
rat [3], 48 h	–	–	–	–	–	7.35	–
rat [3], 72 h	–	–	–	–	–	5.18	–
rat [4], 2 h	–	–	0.0005	–	–	–	–
rat [4], 4 h	–	–	0.002	–	–	–	–
rat [4], 8 h	–	–	0.0127	–	–	–	–
rat [4], 16 h	–	–	0.0779	–	–	–	–
rat [4], 24 h	–	–	0.351	–	–	–	–
rat [4], 33 h	–	–	0.382	–	–	–	–
rat [4], 48 h	–	–	0.354	–	–	–	–
rat [4], 72 h	–	–	0.397	–	–	–	–
rat [5], 2 h	–	–	–	–	2.31	–	–
rat [5], 4 h	–	–	–	–	1.91	–	–
rat [5], 8 h	–	–	–	–	1.79	–	–
rat [5], 16 h	–	–	–	–	0.574	–	–
rat [5], 24 h	–	–	–	–	0.21	–	–
rat [5], 33 h	–	–	–	–	0.165	–	–
rat [5], 48 h	–	–	–	–	0.0546	–	–
rat [5], 72 h	–	–	–	–	0.0254	–	–
rat [6], 2 h	–	–	–	0.53	–	–	–
rat [6], 4 h	–	–	–	0.145	–	–	–
rat [6], 8 h	–	–	–	0.164	–	–	–
rat [6], 16 h	–	–	–	0.0435	–	–	–
rat [6], 24 h	–	–	–	0.0127	–	–	–
rat [6], 33 h	–	–	–	0.008	–	–	–
rat [6], 48 h	–	–	–	0.004	–	–	–
rat [6], 72 h	–	–	–	0.001	–	–	–
rat [7], 2 h	2.47	–	–	–	–	–	–
rat [7], 4 h	1.4	–	–	–	–	–	–
rat [7], 8 h	3.23	–	–	–	–	–	–
rat [7], 16 h	3.19	–	–	–	–	–	–
rat [7], 24 h	2.11	–	–	–	–	–	–
rat [7], 33 h	2.4	–	–	–	–	–	–
rat [7], 48 h	1.27	–	–	–	–	–	–
rat [7], 72 h	0.663	–	–	–	–	–	–
rat [8], 0.3233 h	–	0.081	–	–	–	–	–
rat [8], 0.4938 h	–	0.0586	–	–	–	–	–
rat [8], 0.7433 h	–	0.0404	–	–	–	–	–
rat [8], 0.9867 h	–	0.0307	–	–	–	–	–
rat [8], 1.736 h	–	0.012	–	–	–	–	–
rat [8], 2.474 h	–	0.00662	–	–	–	–	–
rat [8], 3.463 h	–	0.00438	–	–	–	–	–
rat [8], 3.977 h	–	0.00384	–	–	–	–	–
rat [8], 4.987 h	–	0.00267	–	–	–	–	–
rat [8], 55 s	–	0.859	–	–	–	–	–
rat [8], 206 s	–	0.278	–	–	–	–	–

rat [1], dosed: benzo(a)pyrene, 40 umol/kg, iv, male, Sprague Dawley
Conditions	concentration in blood [µmol/kg]
2 h	0.422
4 h	0.118
8 h	0.076
16 h	0.0274
24 h	0.0156
33 h	0.0066
48 h	0.005
72 h	0.0024
